{"source": "patent US20190314297A1", "about": "“COMBINATION THERAPY OF CBD AND COPAXONE” (TO PHARMACEUTICALS LLC, priority 2016, published 2019)", "key": {"EAE model in mice": {"system": "EAE model in mice", "assay": "Suppression of PLP (139-151)-induced relapsing-remitting EAE, daily clinical score", "type": "in vivo, SJL/J female mice", "settings": "monotherapy vs control (vehicle); CBD 5 mg/kg i.p., Copaxone 1 mg/mouse s.c., daily five times a week; FIG. 1-3", "description": "SJL/J female mice were purchased from Harlen. Mice at the age of 6-7 weeks old were used to the in the experiments described below. All the experiments were done in accordance with the protocol approved by the Ethics Committee of the Hebrew University of Jerusalem. The mice were housed in cages with free access to food and water. They were maintained in 12 hr. light/dark cycle at room temperature.\nMice were immunized with PLP (139-151) emulsified in CFA together with pertussis vaccine according to the method described in Hooke Laboratories protocols (http://hookelabs.com/protocols/eaeAISJL). PLP is used to induce relapsing-remitting (RR)-EAE model. In the EAE experiments, SJL/J female mice at an age of 6-7 weeks old were used. Mice were observed daily for the appearance of neurological paralytic symptoms (6-7 mice/group), and were scored in scale from 0-5 denoting as follows:\nRaw p-value were obtained from exact one-tail Mann Whitney tests and adjusted for multiple comparisons (within each experiment) using Holm modification of the Bonferroni correction\n(§1) Histology Following s.c. injection of PLP (139-151) mixed with CFA as well as two pertussis-toxin injections and appearance of paralysis signs in the mice (usually after 9-11 days after initiation of EAE) treatment of mice began.\nThe treatments were given daily, five times a week and usually continued for about 60 days. […]"}, "[1]": {"system": "skin at the site of subcutaneous Copaxone injection", "assay": "Cutaneous wound at the site of repeated s.c. Copaxone injection in EAE mice", "type": "in vivo, SJL/J female mice", "experimental": "(§2) The treatments were given daily, five times a week and usually continued for about 60 days. GA were given s.c. (at an injection dose of 1 mg/mouse), and CBD at a dose of 5 mg/kg were administrated i.p. (intraperitoneal).\nIn mice treated with the Copaxone only (2 out of 7 mice), a skin lesion developed on the back at the site of repeated Copaxone injections."}, "[2]": {"system": "infiltration of immune cells into the spinal cord", "assay": "Histology of immune cell infiltration into the spinal cord in EAE mice (eosin/hematoxylin)", "type": "in vivo, SJL female mice", "settings": "sixty days following injection of PLP; vs control non-treated mice", "experimental": "as §1, §2\nStudies of monotherapies (CBD or Copaxone) and the combination therapy (CBD plus Copaxone) also included histological studies of infiltration of immune cells into the spinal cord in EAE mice (i.e., MS core pathology)."}, "acute EAE [3]": {"system": "acute EAE", "settings": "oral GA, mice; cited from earlier work"}, "acute EAE [4]": {"system": "acute EAE", "settings": "oral GA, rhesus monkeys; cited from earlier work"}, "acute EAE [5]": {"system": "acute EAE", "settings": "oral GA, rats; cited from earlier work"}}, "note": "“Also recorded” adds a separate entry of the source. Read-outs that look alike come from different tables or passages of the source.", "data": [{"compound": "C=C(C)[C@@H]1CCC(C)=C[C@H]1c1c(O)cc(CCCCC)cc1O", "note": "[CBD, 2-[(1R,6R)-6-isopropenyl-3-methylcyclohex-2-en-1-yl]-5-pentylbenzene-1,3-diol]", "values": [{"measurement": "clinical score", "setting": "EAE model in mice", "result": "significant decrease in clinical score; also recorded: significantly decreased clinical score"}, {"measurement": "skin lesions (cutaneous wound) at the injection site, in words", "setting": "[1]; CBD 5 mg/kg i.p. with or without Copaxone 1 mg/mouse s.c.", "result": "No suchlesions were observed"}, {"measurement": "infiltration of immune cells into the white section of the spinal cord", "setting": "[2]", "result": "almost total reduction of such infiltration"}]}, {"compound": "Glatiramer acetate [Copaxone]", "values": [{"measurement": "effect on acute EAE", "setting": "acute EAE [3]", "result": "suppress acute EAE"}, {"measurement": "clinical score", "setting": "EAE model in mice", "result": "significantly decreased clinical score"}, {"measurement": "skin lesion developed at the site of repeated Copaxone injections (incidence)", "setting": "[1]; Copaxone only, 1 mg/mouse s.c.", "result": "2 out of 7"}, {"measurement": "effect on acute EAE", "setting": "acute EAE [4]", "result": "suppress acute EAE"}, {"measurement": "effect on acute EAE", "setting": "acute EAE [5]", "result": "suppress acute EAE"}, {"measurement": "infiltration of immune cells into the white section of the spinal cord", "setting": "[2]", "result": "almost total reduction of such infiltration"}]}]}
